Measurements published in patent publication US20070105162A1, “Monovalent avidin and streptavidin compositions” (Massachusetts Institute of Technology, priority 2005, published 2007).

Key:
[1] = Electrospray ionization mass spectrometry: biotin molecules bound per streptavidin tetramer; type: binding; settings: for # biotins (bound to each tetramer): from mass change upon addition of biotin, 30 μM protein, 200 μM biotin; for biotin binding per tetramer by mass spectrometry (in words): spectra with or without biotin
Method: Biospin columns (Bio-Rad) were equilibrated by spinning 5 times in 500 μL of 15 mM ammonium acetate pH 7.8 at 1000 g for 2 min. Then 30-50 μL of 30 μM protein in PBS was buffer-exchanged into 15 mM ammonium acetate pH 7.8 using the pre-equilibrated Biospin columns by spinning for 20 s at 1000 g. To ensure that PBS was completely removed, the flow-through was again buffer-exchanged with a second pre-equilibrated column for 20 s. This procedure also removed free biotin when the starting 30 μM streptavidin forms were incubated with 200 μM biotin. Less than 2 min before introducing into the mass spectrometer, the buffer-exchanged samples were diluted with a solution of 1:1 15 mM ammonium acetate pH 7.8 and 78% acetonitrile, 0.01% trifluoroacetic acid.
An Advion nanospray robot (Advion BioSystems, Ithica, N.Y.) with a back-pressure of 0.45 Psi introduced the samples into the mass spectrometer, an 8.5 Tesla custom-built Electrospray Ionisation-Fourier Transform Mass Spectrometer. To visualize the non-covalent tetramers and non-covalent biotin binding in the high m/z range, the following settings were used: Chirp rate=750 Hz, Amplitude=0.5 V p-p, Tube lens=200 V, Capillary heater 2 V, Quad filter=−20 V, Skimmer=0 V, Capillary offset=34 V, X-fer=−110 V, Leak gas=4.2×10^−5 Torr. The capillary heater was kept low and the Quad filter and Skimmer were kept either high or off to prevent subunit dissociation. The transfer was set to this low value of −110 V in order to visualize the high m/z region.
The masses were calculated manually by first determining the charge state. The final mass was determined by multiplying the observed m/z by the charge and subtracting the mass corresponding to the addition of protons to give that charge. For example, for the 15+charge state of D4 an m/z of 3534.159 was obtained. (15×3534.159)-(15×1.00727) gave a mass for this ion of 52,997 Da. This calculation was repeated for each charge state and the mean and standard deviation reported. The spectra were calibrated with tetrameric streptavidin, after its monomer mass was determined under denaturing conditions (Mr=13,271.4 Da). Average masses were predicted from the DNA sequence, using the ExPASy PeptideMass Calculator (ca.expasy.org/tools/peptide-mass.html) and assuming removal of the N-terminal formyl-Methionine.
The different tetramers were purified using a Ni-nitrilotriacetic acid (NTA) column, eluting according to the number of His6-tags with increasing concentrations of imidazole. […] The tetramer composition was further confirmed by boiling the samples before loading on SDS-PAGE, to determine the ratio of A to D subunits (FIG. 1D), and by electrospray ionization mass spectrometry. In Table 1 (Schwartz, B. L. et al., J. of the Amer. Soc. for Mass Spec. 6: 459-465, 1995) the observed mass (±s.d.), determined by Electrospray Ionization-Mass Spectrometry, is compared to the mass predicted from the sequence. From the change (±s.e.m.) upon addition of biotin (mass 244.31), we determined how many biotin molecules were bound to each tetramer.
Electrospray ionization mass spectrometry was used to characterize the number of biotin molecules bound per tetramer. Spectra of the different streptavidin tetramers with or without biotin were acquired. […] The other chimeric tetramers bound one biotin per A subunit.

[2] = system: biotinylated AP-CFP-TM on HeLa cells; experiment: Staining of biotinylated AP-CFP-TM on HeLa with Alexa Fluor 568-conjugated streptavidins; type: cell-based; settings: Alexa Fluor 568 conjugate 10 μg/mL, 10 min at 4° C.
Method: Enzymatic biotinylation and imaging of HeLa transfectants were performed as previously described (Howarth, M. et al., Proc. Natl. Acad. Sci. USA 102: 7583-7588, 2005), except instead of 10 μM biotin and 1 mM ATP, we added 10 μM biotin-AMP (synthesized according to Coleman and Huang; Coleman, T. M. and Huang, F. Chem. Biol. 9: 1227-1236, 2002) to give equivalent biotinylation but minimizing the risk of purinoreceptor activation by ATP (Rathbone, M. P. et al., Prog. Neurobiol. 59: 663-690, 1999). […] Biotinylation of neurons was performed at day in vitro (DIV) 8 in Hanks' Balanced Salt Solution (HBSS) (Invitrogen) with 0.2 μM biotin ligase and 10 μM biotin-AMP for 5 min at 37° C. […] Neurons were washed with NeuroBasal media (Invitrogen) supplemented with B-27 (Invitrogen), 50 U/mL penicillin, 50 μg/mL streptomycin, and 0.2 mM L-glutamine and chased in the same medium for 0 or 2 hr at 37° C. Cells were then fixed in −20° C. methanol. […]
Images of HeLa cells were collected on a Zeiss Axiovert 200M inverted epifluorescence microscope using a 40× oil-immersion lens and a MicroMAX CCD camera (Roper Scientific; Tucson, Ariz.). CFP (420DF20 excitation, 450DRLP dichroic, 475DF40 emission) and Alexa568 (560DF20 excitation, 585DRLP dichroic, 605DF30 emission) images were collected and analyzed using OpenLab software (Improvision; Lexington, Mass.). Fluorescence images were background-corrected. […] Images were scaled to 16 bits and analyzed in Northern Eclipse (Empix Imaging; Ontario, Canada) with user-written software. […] Results were then calculated in terms of clusters per micrometer of dendrite. For assessment of pre-synaptic terminals, clusters were determined as before and average grey levels of clusters were compared between transfected dendrites and untransfected dendrites within the same field of view. […] “n” represents the number of transfected neurons for which clusters were measured. […]

For “D4: Streptavidin tetramer with 4 dead subunits (D: N23A, S27D, S45A, SEQ ID NO:3) [Tetramer D4]”, the “# biotins (bound to each tetramer)” value [1] was 0, the “biotin binding per tetramer by mass spectrometry (in words)” value [1] was “No biotin binding” and the “Alexa staining of biotinylated AP-CFP-TM” value [2] was “no detectable staining”.
For “A1D3: Monovalent streptavidin tetramer: one His6-tagged wild-type (A) subunit and three dead (D) subunits [Tetramer A1D3]”, the “# biotins (bound to each tetramer)” value [1] was 1, the “biotin binding per tetramer by mass spectrometry (in words)” value [1] was “single biotin” and the “Alexa staining of biotinylated AP-CFP-TM” value [2] was “detected equally well”.
